Data reported in US20190142800A1, “SYNERGISTIC ANTIFUNGAL COMPOSITIONS AND METHODS THEREOF” (VYOME THERAPEUTICS LIMITED, priority 2016, published 2019).

Columns and labels:
[1] = tested on: azole resistant C. albicans MTCC 227; test: Checkerboard assay on azole resistant C. albicans MTCC 227; format: cell-based, Candida albicans; settings: for MIC: Candida albicans, MTCC227, agent alone
Protocol: The synergy is measured by determining the fractional inhibitory concentration (FIC) value of the combination. This experimental set up, called checkerboard method, allows measurement of a desired effect (inhibition of fungal growth in this case) at different combinations of various concentrations of the two agents (antifungal agent and fatty acid/ester). […] No agent is added to the penultimate column on the right and the bottom row. The final column on the right is used for growth control (only inoculum in broth) and sterility control (broth alone, no inoculum). […] FIC values for both agents in a particular well were calculated in this way followed by determination of the FIC index (sum of the FICs of each drug in the concerned well). […] Agents Chemother.
(§1) Using the checkerboard layout experimental setup described above (FIG. 1A), various medium-chain fatty acids were tested for their ability to potentiate the activity of a known antifungal agent. Concentrations above and below the MIC of each test agent were tested using serial dilution. The same procedure was expanded to test combinations of various medium-chain fatty acids C-1 to C-14 (such caprylic acid, undecylenic acid and lauric acid) and esters thereof, with antifungal agents from various classes including azoles, allylamines, benzylamines, zinc pyrithione and piroctone olamine against both susceptible and resistant Trichophyton spp. (filamentous fungus) and Candida spp. (yeast).
Potentiation of the activity of antimycotic agents using ester derivatives of medium chain fatty acids was tested in a standard, well accepted in vitro assay system to check for synergy. This experimental set up, called checkerboard method, allows measurement of a desired effect (inhibition of fungal growth in this case) at different combinations of various concentrations of two agents. A chosen medium chain fatty acid (C-1 to C-14) or its ester derivative was tested for its ability to potentiate the activity of a known antifungal agent (various classes) using the checkerboard layout. Various concentrations above and below the MIC of each test agent were tested using serial dilution in Sabouraud dextrose broth. […] FIC values for both test agents in a particular well are calculated in this way followed by determination of the FIC index (sum of the FICs of each drug in the concerned well).

[2] = tested on: Trichophyton rubrum (ATCC-28188); test: Checkerboard assay of fatty acid/ester with antifungals on Trichophyton rubrum (ATCC 28188); format: cell-based; set-up: key to FIC index: FIC index = sum of FICs; FIC = agent conc in well / agent MIC; settings: for MIC: Trichophyton rubrum, ATCC28188, agent alone
Protocol: The synergy is measured by determining the fractional inhibitory concentration (FIC) value of the combination. This experimental set up, called checkerboard method, allows measurement of a desired effect (inhibition of fungal growth in this case) at different combinations of various concentrations of the two agents (antifungal agent and fatty acid/ester). […] No agent is added to the penultimate column on the right and the bottom row. The final column on the right is used for growth control (only inoculum in broth) and sterility control (broth alone, no inoculum). […] FIC value for each agent in a particular well of the checkerboard layout was calculated by dividing the agent concentration in that well by the established MIC value of the agent against the test organism (Hsieh et al., Synergy assessed by checkerboard: A critical Analysis, Diagn. Microbiol. Infect Dis. (1993) 16:343-349). FIC values for both agents in a particular well were calculated in this way followed by determination of the FIC index (sum of the FICs of each drug in the concerned well). […] Agents Chemother. (2010) 54(2): 602-609].
as §1
Potentiation of the activity of antimycotic agents using ester derivatives of medium chain fatty acids was tested in a standard, well accepted in vitro assay system to check for synergy. This experimental set up, called checkerboard method, allows measurement of a desired effect (inhibition of fungal growth in this case) at different combinations of various concentrations of two agents. A chosen medium chain fatty acid (C-1 to C-14) or its ester derivative was tested for its ability to potentiate the activity of a known antifungal agent (various classes) using the checkerboard layout. Various concentrations above and below the MIC of each test agent were tested using serial dilution in Sabouraud dextrose broth. […] FIC value for a drug in a particular well of the checkerboard layout is calculated by dividing the drug concentration in that well by the established MIC value of the drug against the test organism (Hsieh et al., Synergy assessed by checkerboard: A critical Analysis, Diagn. Microbiol. Infect Dis. (1993) 16:343-349). FIC values for both test agents in a particular well are calculated in this way followed by determination of the FIC index (sum of the FICs of each drug in the concerned well).

[3] = agent's MIC in combination antifungal + caprylic acid (partner: other agent of same combination no.)
[4] = agent's MIC in combination antifungal + glyceryl monocaprylate (partner: other agent of same combination no.)
[5] = agent's MIC in combination antifungal + lauric acid (partner: other agent of same combination no.)
[6] = agent's MIC in combination antifungal + propylene glycol monocaprylate (partner: other agent of same combination no.)
[7] = agent's MIC in combination antifungal + propylene glycol monolaurate (partner: other agent of same combination no.)
[8] = agent's MIC in combination antifungal + undecylenic acid (partner: other agent of same combination no.)
[9] = antifungal in combination with caprylic acid
[10] = antifungal in combination with glyceryl monocaprylate
[11] = antifungal in combination with lauric acid
[12] = antifungal in combination with propylene glycol monocaprylate
[13] = antifungal in combination with propylene glycol monolaurate
[14] = antifungal in combination with undecylenic acid
[15] = combination antifungal + caprylic acid
[16] = combination antifungal + glyceryl monocaprylate
[17] = combination antifungal + lauric acid
[18] = combination antifungal + propylene glycol monocaprylate
[19] = combination antifungal + propylene glycol monolaurate
[20] = combination antifungal + undecylenic acid

## CCC(C)n1ncn(-c2ccc(N3CCN(c4ccc(OCC5COC(Cn6cncn6)(c6ccc(Cl)cc6Cl)O5)cc4)CC3)cc2)c1=O (stereo not drawn) [Itraconazole]
[1]; Table 9, caprylic acid (C8) series
  MIC: 32 µg/mL
[1]; Table 10, propylene glycol monocaprylate series
  MIC: 64 µg/mL
[1]; Table 11, glyceryl monocaprylate series
  MIC: 32 µg/mL
[1]; Table 12, undecylenic acid (C11) series
  MIC: 32 µg/mL
[1]; Table 13, lauric acid (C12) series
  MIC: 32 µg/mL
[1]; Table 14, propylene glycol monolaurate series
  MIC: 32 µg/mL
[1]; [3]
  Combination MIC: 4 µg/mL
[1]; [4]
  Combination MIC: 4 µg/mL
[1]; [5]
  Combination MIC: 0.125 µg/mL
[1]; [6]
  Combination MIC: 0.125 µg/mL
[1]; [7]
  Combination MIC: 2 µg/mL
[1]; [8]
  Combination MIC: 0.125 µg/mL
[1]; [9]
  FIC index: 0.25
  Interaction: Synergistic (Combinations that gave FIC indices less than 1 were designated “synergistic”)
[1]; [10]
  FIC index: 0.375
  Interaction: Synergistic (Combinations that gave FIC indices less than 1 were designated “synergistic”)
[1]; [11]
  FIC index: 0.253
  Interaction: Synergistic (Combinations that gave FIC indices less than 1 were designated “synergistic”)
[1]; [12]
  FIC index: 0.064
  Interaction: Synergistic (Combinations that gave FIC indices less than 1 were designated “synergistic”)
[1]; [13]
  FIC index: 0.07
  Interaction: Synergistic (Combinations that gave FIC indices less than 1 were designated “synergistic”)
[1]; [14]
  FIC index: 0.066
  Interaction: Synergistic (Combinations that gave FIC indices less than 1 were designated “synergistic”)
[1]; [15]
  FIC: 0.125
[1]; [16]
  FIC: 0.125
[1]; [17]
  FIC: 0.003
[1]; [18]
  FIC: 0.002
[1]; [19]
  FIC: 0.0625
[1]; [20]
  FIC: 0.003
[2]; Table 1, caprylic acid series
  MIC: 0.125 µg/mL
[2]; Table 2, propylene glycol monocaprylate series
  MIC: 0.125 µg/mL
[2]; Table 3, glyceryl monocaprylate series
  MIC: 0.125 µg/mL
[2]; Table 4, undecylenic acid (C11) series
  MIC: 0.125 µg/mL
[2]; Table 5, lauric acid (C12) series
  MIC: 0.125 µg/mL
[2]; Table 6, propylene glycol monolaurate series
  MIC: 0.125 µg/mL
[2]; [3]
  Combination MIC: 0.0312 µg/mL
[2]; [4]
  Combination MIC: 0.007 µg/mL
[2]; [5]
  Combination MIC: 0.06 µg/mL
[2]; [6]
  Combination MIC: 0.015 µg/mL
[2]; [7]
  Combination MIC: 0.06 µg/mL
[2]; [8]
  Combination MIC: 0.0312 µg/mL
[2]; [9]
  FIC index: 0.5
  Interaction: Synergistic (Combinations that gave FIC indices less than 1 were designated “synergistic”)
[2]; [10]
  FIC index: 0.562
  Interaction: Synergistic (Combinations that gave FIC indices less than 1 were designated “synergistic”)
[2]; [11]
  FIC index: 0.75
  Interaction: Synergistic (Combinations that gave FIC indices less than 1 were designated “synergistic”)
[2]; [12]
  FIC index: 0.625
  Interaction: Synergistic (Combinations that gave FIC indices less than 1 were designated “synergistic”)
[2]; [13]
  FIC index: 0.6
  Interaction: Synergistic (Combinations that gave FIC indices less than 1 were designated “synergistic”)
[2]; [14]
  FIC index: 0.75
  Interaction: Synergistic (Combinations that gave FIC indices less than 1 were designated “synergistic”)
[2]; [15]
  FIC: 0.25
[2]; [16]
  FIC: 0.0625
[2]; [17]
  FIC: 0.5
[2]; [18]
  FIC: 0.125
[2]; [19]
  FIC: 0.48
[2]; [20]
  FIC: 0.25
